Reference: patent publication US12077486B2, “Quaternary fatty amidoamine detergents” (NOURYON CHEMICALS INTERNATIONAL B.V., priority 2018, dated 2024)

How the values were obtained:
[1] = stabilization of a dispersion of solids in a-polar medium; settings: over a wide range of temperatures
[2] = solubility in an a-polar medium; format: physicochemical
Method: Throughout this document, unless indicated differently, the weight percentages of the compositions are based on the total weight of the composition, whereby the total weight of the composition is 100 wt %. The term water-soluble is used for materials that dissolve in an amount of at least 1 g per liter of demineralized water at 25° C. Where used, the term “consisting” also embraces “consisting substantially”, but may optionally be limited to its strict meaning of “consisting entirely”. An a-polar (nonpolar) medium is herein defined as a material having a dielectric coefficient of less than 7 at 20° C. Typically it is a liquid at the temperature of use. Suitably it is a medium with a dielectric coefficient at 20° C. of less than 6.5, 6, 5.5, 5, 4.5, 4, 3.5, or 3. The dielectric constant is measured in accordance with ASTM D150. The term “substantially free” is used fora moiety that is present in an amount of less than 2% by weight. Similarly, the term “essentially” is used to denote a composition that consists for more than 95% by weight of the indicated components.

## CCCCC/C=C\CCC(CCCCCCCC(=O)NCCC[N+](C)(C)C)C(CCCCCCCC)CCCCCCCCC(=O)NCCC[N+](C)(C)C (centres unmarked) [Preparation Example 1]
[1]
  stabilization of a dispersion of solids in the dissolution: perfectly stabilize
[2]
  dissolution in an a-polar medium: easily dissolve
